Experimental data from ChEMBL document CHEMBL1139812, “Kinesin spindle protein (KSP) inhibitors. Part 8: Design and synthesis of 1,4-diaryl-4,5-dihydropyrazoles as potent inhibitors of the mitotic kinesin KSP” (Bioorg Med Chem Lett, 2007).

What was measured:
[1] = target: T1, Kinesin-like protein KIF11 (Homo sapiens, UniProt P52732); assay: Inhibition of kinesin spindle protein by ATPase assay
T1 sequence (P52732 whole entry): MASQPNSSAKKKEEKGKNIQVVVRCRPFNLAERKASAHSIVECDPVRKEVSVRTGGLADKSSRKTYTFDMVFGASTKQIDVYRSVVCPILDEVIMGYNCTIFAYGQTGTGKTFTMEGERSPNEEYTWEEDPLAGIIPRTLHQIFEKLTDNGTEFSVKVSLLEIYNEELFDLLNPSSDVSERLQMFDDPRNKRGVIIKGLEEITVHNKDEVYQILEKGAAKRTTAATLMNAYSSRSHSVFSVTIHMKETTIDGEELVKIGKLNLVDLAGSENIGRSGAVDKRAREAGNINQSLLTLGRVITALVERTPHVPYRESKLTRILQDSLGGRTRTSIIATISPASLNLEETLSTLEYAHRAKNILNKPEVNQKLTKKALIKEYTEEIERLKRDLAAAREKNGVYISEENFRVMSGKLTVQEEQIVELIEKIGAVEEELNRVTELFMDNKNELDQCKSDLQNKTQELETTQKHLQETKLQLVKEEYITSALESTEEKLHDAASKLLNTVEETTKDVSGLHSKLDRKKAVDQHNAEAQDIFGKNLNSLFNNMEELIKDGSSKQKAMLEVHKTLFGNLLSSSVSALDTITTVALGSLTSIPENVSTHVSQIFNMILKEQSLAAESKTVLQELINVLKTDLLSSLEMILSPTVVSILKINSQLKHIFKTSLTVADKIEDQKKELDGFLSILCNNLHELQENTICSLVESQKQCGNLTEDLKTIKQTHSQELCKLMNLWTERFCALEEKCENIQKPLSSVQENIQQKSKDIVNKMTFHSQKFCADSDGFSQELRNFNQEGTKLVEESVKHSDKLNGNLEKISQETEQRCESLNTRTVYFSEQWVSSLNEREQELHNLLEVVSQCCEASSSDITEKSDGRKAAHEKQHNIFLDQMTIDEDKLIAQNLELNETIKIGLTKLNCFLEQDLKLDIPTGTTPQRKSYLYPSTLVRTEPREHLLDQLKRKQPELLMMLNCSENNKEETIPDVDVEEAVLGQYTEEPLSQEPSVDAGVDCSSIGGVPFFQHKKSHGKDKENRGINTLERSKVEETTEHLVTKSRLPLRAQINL

[2] = target: T1, Kinesin-like protein KIF11; assay: Inhibition of KSP-induced nucleolin phosphorylation in cell-based mitotic arrest assay; assay type: functional
[3] = Solubility at pH 4; assay type: physicochemical; details: buffer
[4] = Protein binding in mouse plasma; assay type: ADME, cell-free; details: read-out: PB (converted)
KB 3-1 = assay: Ratio of IC50 for KB-V-1 cells to IC50 for KB-3-1 cells; assay type: functional, Homo sapiens
Homo sapiens = species: Homo sapiens; assay: Protein binding in human plasma; details: read-out: PB (converted)
[5] = target: Voltage-gated inwardly rectifying potassium channel KCNH2 (Homo sapiens, UniProt Q12809); assay: Inhibition of hERG expressed in HEK cells; assay type: toxicity, cell-based, HEK293
A2780 = assay: Mitotic arrest in human A2780 cells xenografted nude mouse assessed as induction of phospho-histone H3 at 3.5 mg/kg; assay type: functional

Chain of Voltage-gated inwardly rectifying potassium channel KCNH2 (Q12809 whole entry): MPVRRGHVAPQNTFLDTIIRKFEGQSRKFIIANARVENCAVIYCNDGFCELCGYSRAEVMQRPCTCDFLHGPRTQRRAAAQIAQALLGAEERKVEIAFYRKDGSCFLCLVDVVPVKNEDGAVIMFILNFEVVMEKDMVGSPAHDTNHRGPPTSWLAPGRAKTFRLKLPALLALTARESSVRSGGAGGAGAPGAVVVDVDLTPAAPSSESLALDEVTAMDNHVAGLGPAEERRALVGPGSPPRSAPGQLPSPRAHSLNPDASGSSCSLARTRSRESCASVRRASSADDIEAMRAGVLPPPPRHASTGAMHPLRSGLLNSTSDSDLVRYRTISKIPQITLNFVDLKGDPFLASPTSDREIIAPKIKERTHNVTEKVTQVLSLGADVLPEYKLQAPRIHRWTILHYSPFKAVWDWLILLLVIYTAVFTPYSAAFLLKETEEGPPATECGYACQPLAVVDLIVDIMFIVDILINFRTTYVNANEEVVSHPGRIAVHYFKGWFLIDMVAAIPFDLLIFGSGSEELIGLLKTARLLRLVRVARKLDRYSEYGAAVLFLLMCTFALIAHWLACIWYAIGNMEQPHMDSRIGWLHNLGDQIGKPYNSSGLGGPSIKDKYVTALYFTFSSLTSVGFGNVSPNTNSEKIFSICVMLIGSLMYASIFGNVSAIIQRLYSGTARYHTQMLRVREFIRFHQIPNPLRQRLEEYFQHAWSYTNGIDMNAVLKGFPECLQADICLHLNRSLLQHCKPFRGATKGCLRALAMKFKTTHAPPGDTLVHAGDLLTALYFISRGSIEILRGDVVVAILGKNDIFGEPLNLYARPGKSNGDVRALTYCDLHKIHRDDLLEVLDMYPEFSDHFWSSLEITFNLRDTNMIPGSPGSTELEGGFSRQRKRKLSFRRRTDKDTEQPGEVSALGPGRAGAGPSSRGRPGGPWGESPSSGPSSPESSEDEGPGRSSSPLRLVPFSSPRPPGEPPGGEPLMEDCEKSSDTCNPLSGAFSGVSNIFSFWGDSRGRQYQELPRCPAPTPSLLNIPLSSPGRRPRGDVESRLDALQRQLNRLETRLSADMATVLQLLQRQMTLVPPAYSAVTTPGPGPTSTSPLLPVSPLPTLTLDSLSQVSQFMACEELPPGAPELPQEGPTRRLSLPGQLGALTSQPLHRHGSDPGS

| SMILES | IC50 [1] [nM] | EC50 [2] [nM] | also measured |
| --- | --- | --- | --- |
| CC(=O)C1=NN(c2cc(F)ccc2F)CC1(CCCN1CC(F)C1)c1ccccc1 (racemic) | 5.2 | 40 | – |
| CC(=O)C1=NN(c2cc(C)ccc2F)C[C@@]1(CCCN(C)C)c1ccccc1 | 0.2 | 3.2 | solubility [3]: > 4000 µg/mL; fraction unbound [4]: 0.07; Ratio IC50 (KB 3-1): 1.6; fraction unbound (Homo sapiens): 0.04; IC50 [5]: 3040 nM; EC99 (A2780): 67 nM |
| CC(=O)C1=NN(c2cc(F)ccc2F)CC1(CCCN1CCCC1)c1ccccc1 (racemic) | 3.8 | 15 | – |
| CC(=O)C1=NN(c2cc(C(F)(F)F)ccc2F)CC1(CCCN1CCN(C(C)=O)CC1)c1ccccc1 (racemic) | 10.1 | 208 | – |
| CC(=O)C1=NN(c2cc(Cl)ccc2F)CC1(CCCN1CCN(C(C)=O)CC1)c1ccccc1 (racemic) | 3.9 | 46 | – |
| CC(=O)C1=NN(c2cc(C)ccc2F)CC1(CCCN1CCN(C(C)=O)CC1)c1ccccc1 (racemic) | 2 | 27 | – |
| CC(=O)C1=NN2c3cc(F)ccc3OC[C@H]2[C@@]1(CCCN1CCN(C(C)=O)CC1)c1ccccc1 | – | 5 | solubility [3]: > 4000 µg/mL; EC99 (A2780): 100 nM |

Continued, in another order:

| IC50 [1] [nM] | EC50 [2] [nM] | SMILES | also measured |
| --- | --- | --- | --- |
| 4 | 567 | CC(=O)C1=NN(c2cc(F)ccc2F)CC1(CCCN(C)Cc1cc(C)no1)c1ccccc1 (racemic) | – |
| 1.2 | 11 | CC(=O)C1=NN(c2cc(F)ccc2F)CC1(CCCN1CC2CC1CO2)c1ccccc1 (racemic) | – |
| 21.8 | 368 | CC(=O)C1=NN(c2ccccc2F)CC1(CCCN1CCN(C(C)=O)CC1)c1ccccc1 (racemic) | – |
| 4.7 | 38 | CC(=O)C1=NN(c2cc(Br)ccc2F)CC1(CCCN1CCN(C(C)=O)CC1)c1ccccc1 (racemic) | – |
| 16.5 | 138 | CC(=O)C1=NN(c2cc(F)ccc2F)CC1(CCCN1CCS(=O)(=O)CC1)c1ccccc1 (racemic) | – |
| 3.8 | 78 | CC(=O)C1=NN(c2cc(F)ccc2F)CC1(CCCN1CCN(C(C)=O)CC1)c1ccccc1 (racemic) | – |
| 2.1 | 9.4 | CC(=O)C1=NN(c2cc(F)ccc2F)CC1(CCCN(C)C)c1ccccc1 (racemic) | – |
| 4.2 | 53 | CC(=O)C1=NN(c2cc(F)ccc2F)CC1(CCCN1CCOCC1)c1ccccc1 (racemic) | – |
